Assays:
Experiment in all cases: General post-emergent herbicidal activity, foliar application
Assay type in all cases: in vivo
Zea mays L. (corn) = conditions: 336 h, scored after 14 days, read-out: % Visual Growth Reduction ZEAMX; for plant injury at 35 g/ha: 35 g ai/ha; for plant injury at 70 g/ha: 70 g ai/ha; for plant injury at 140 g/ha: 140 g ai/ha
Method: (§1) A weighed amount, determined by the highest rate to be tested, of each test compound was placed in a 25 mL glass vial and was dissolved in 4 mL of a 97:3 v/v (volume/volume) mixture of acetone and dimethyl sulfoxide to obtain concentrated stock solutions which will be referred to as General Purpose Solvent. […] The concentrated stock solutions obtained were diluted with 20 mL of an aqueous mixture containing water, General Purpose Solvent, isopropyl alcohol, Atplus 411F crop oil concentrate, and Triton X-155 surfactant in a 46:42:12:1.0:0.02 v/v ratio to obtain spray solutions containing the highest application rates. Additional application rates were obtained by serial dilution of 12 mL of the high rate solution into a solution containing 2 mL of 97:3 v/v (volume/volume) mixture of acetone and dimethyl sulfoxide and 10 mL of an aqueous mixture containing water, General Purpose Solvent, isopropyl alcohol, Atplus 411F crop oil concentrate, and Triton X-155 surfactant in a 46:42:12:1.0:0.02 v/v ratio to obtain 1/2×, 1/4×, 1/8× and 1/16× rates of the high rate. […] Control plants were sprayed in the same manner with the solvent blank.
(§2) The treated plants and control plants were placed in a greenhouse as described above and watered by sub-irrigation to prevent wash-off of the test compounds. After 14 days, the condition of the test plants as compared with that of the untreated plants was determined visually and scored on a scale of 0 to 100 percent where 0 corresponds to no injury and 100 corresponds to complete kill.

Oryza sativa L. (rice) = conditions: Oryza sativa, 336 h, scored after 14 days, read-out: % Visual Growth Reduction ORYSA; for plant injury at 35 g/ha: 35 g ai/ha; for plant injury at 70 g/ha: 70 g ai/ha; for plant injury at 140 g/ha: 140 g ai/ha
Method: as §1, §2

[1] = test system: Helianthus annuus L. (sunflower, common); conditions: for pest or weed control at 35 g/ha: 35 g ai/ha; for pest or weed control at 70 g/ha: 70 g ai/ha; for pest or weed control at 140 g/ha: 140 g ai/ha; for GR80 Value HELAN: calculated by probit analysis, dose for 80% visual injury, may be extrapolated
Method: as §1, §2
(§3) By applying the well-accepted probit analysis as described by J. Berkson in […], 48, 565 (1953) and by D. Finney in “Probit Analysis” Cambridge University Press (1952), the dose response data gathered as expressed above can be used to calculate GR20, GR50 and GR80 values, which are defined as growth reduction factors that correspond to the effective dose of herbicide required to kill or control 20 percent, 50 percent or 80 percent, respectively, of a target plant. Data not expressed in Table A may have been used to calculate some of the GR80 values in Table B. In some cases, the GR80 values may be extrapolations calculated based on the slope of the dose response curve for individual compounds listed in Table B.

[2] = test system: Euphorbia heterophylla L. (poinsettia, wild); conditions: for pest or weed control at 35 g/ha: 35 g ai/ha; for pest or weed control at 70 g/ha: 70 g ai/ha; for pest or weed control at 140 g/ha: 140 g ai/ha; for GR80 Value EPHHL: calculated by probit analysis, dose for 80% visual injury, may be extrapolated
Method: as §1, §2, §3

[3] = test system: Amaranthus retroflexus L. (pigweed, redroot); conditions: for pest or weed control at 35 g/ha: 35 g ai/ha; for pest or weed control at 70 g/ha: 70 g ai/ha; for pest or weed control at 140 g/ha: 140 g ai/ha; for GR80 Value AMARE: calculated by probit analysis, dose for 80% visual injury, may be extrapolated
Method: as §1, §2, §3

[4] = test system: Viola tricolor L. (pansy); conditions: for pest or weed control at 35 g/ha: 35 g ai/ha; for pest or weed control at 70 g/ha: 70 g ai/ha; for pest or weed control at 140 g/ha: 140 g ai/ha; for GR80 Value VIOTR: calculated by probit analysis, dose for 80% visual injury, may be extrapolated
Method: as §1, §2, §3

[5] = test system: Echinochloa crus-galli (L.) Beauv. (barnyardgrass); conditions: for pest or weed control at 35 g/ha: 35 g ai/ha; for pest or weed control at 70 g/ha: 70 g ai/ha; for pest or weed control at 140 g/ha: 140 g ai/ha; for GR80 Value ECHCG: calculated by probit analysis, dose for 80% visual injury, may be extrapolated
Method: as §1, §2, §3

[6] = test system: Chenopodium album L. (lambsquarters, common); conditions: for pest or weed control at 35 g/ha: 35 g ai/ha; for pest or weed control at 70 g/ha: 70 g ai/ha; for pest or weed control at 140 g/ha: 140 g ai/ha; for GR80 Value CHEAL: calculated by probit analysis, dose for 80% visual injury, may be extrapolated
Method: as §1, §2, §3

[7] = Helianthus annuus, 336 h, foliar post-emergent, scored after 14 days, read-out: % Visual Growth Reduction HELAN
[8] = Euphorbia heterophylla, 336 h, foliar post-emergent, scored after 14 days, read-out: % Visual Growth Reduction EPHHL
[9] = Amaranthus retroflexus, 336 h, foliar post-emergent, scored after 14 days, read-out: % Visual Growth Reduction AMARE
[10] = Viola tricolor, 336 h, foliar post-emergent, scored after 14 days, read-out: % Visual Growth Reduction VIOTR
[11] = Echinochloa crus-galli, 336 h, foliar post-emergent, scored after 14 days, read-out: % Visual Growth Reduction ECHCG
[12] = Chenopodium album, 336 h, foliar post-emergent, scored after 14 days, read-out: % Visual Growth Reduction CHEAL

SMILES	plant injury at 35 g/ha (Zea mays L. (corn)) [%]	plant injury at 70 g/ha (Zea mays L. (corn)) [%]	plant injury at 140 g/ha (Zea mays L. (corn)) [%]	plant injury at 35 g/ha (Oryza sativa L. (rice)) [%]	plant injury at 70 g/ha (Oryza sativa L. (rice)) [%]	plant injury at 140 g/ha (Oryza sativa L. (rice)) [%]	pest or weed control at 35 g/ha [1, 7] [%]	pest or weed control at 70 g/ha [1, 7] [%]	pest or weed control at 140 g/ha [1, 7] [%]	GR80 Value HELAN [1] [g ai/ha]	pest or weed control at 35 g/ha [2, 8] [%]	pest or weed control at 70 g/ha [2, 8] [%]	pest or weed control at 140 g/ha [2, 8] [%]	GR80 Value EPHHL [2] [g ai/ha]	pest or weed control at 35 g/ha [3, 9] [%]	pest or weed control at 140 g/ha [3, 9] [%]	GR80 Value AMARE [3] [g ai/ha]	pest or weed control at 140 g/ha [4, 10] [%]	pest or weed control at 140 g/ha [5, 11] [%]	pest or weed control at 140 g/ha [6, 12] [%]	further results
COC(=O)c1nc(C(C)F)c(Cl)c(N)c1Cl (stereo not drawn) [Compound F10, Methyl 4-amino-3,5-dichloro-6-(1-fluoroethyl)picolinate]	0	0	0	0	0	0	80	85	100	124	0	20	30	>140	85	100	18.1	0	0	85	pest or weed control at 70 g/ha [3, 9]: 98%; pest or weed control at 35 g/ha [4, 10]: 0%; pest or weed control at 70 g/ha [4, 10]: 0%; GR80 Value VIOTR [4]: >140 g ai/ha; pest or weed control at 35 g/ha [5, 11]: 0%; pest or weed control at 70 g/ha [5, 11]: 0%; GR80 Value ECHCG [5]: >140 g ai/ha; pest or weed control at 35 g/ha [6, 12]: 80%; pest or weed control at 70 g/ha [6, 12]: 85%; GR80 Value CHEAL [6]: 23.7 g ai/ha
COC(=O)c1nc(C(C)(F)CF)cc(N)c1Cl (stereo not drawn) [Compound F11, Methyl 4-amino-3-chloro-6-(1,2-difluoropropan-2-yl)picolinate]	–	–	0	–	–	0	–	–	70	–	–	–	10	–	–	30	–	0	0	0	–
COC(=O)c1nc(C(F)F)cc(N)c1Cl [Compound F12, methyl 4-amino-3-chloro-6-(difluoromethyl)picolinate]	15	30	60	0	0	0	100	100	100	23.1	90	100	100	29.2	80	100	26.8	100	55	100	plant injury at 280 g/ha (Zea mays L. (corn); 280 g ai/ha): 70%; plant injury at 280 g/ha (Oryza sativa L. (rice); 280 g ai/ha): 8%; pest or weed control at 280 g/ha ([1]; Helianthus annuus, 336 h, 280 g ai/ha, foliar post-emergent, scored after 14 days, read-out: % Visual Growth Reduction HELAN): 100%; pest or weed control at 280 g/ha ([2]; Euphorbia heterophylla, 336 h, 280 g ai/ha, foliar post-emergent, scored after 14 days, read-out: % Visual Growth Reduction EPHHL): 100%; pest or weed control at 70 g/ha [3, 9]: 100%; pest or weed control at 280 g/ha ([3]; Amaranthus retroflexus, 336 h, 280 g ai/ha, foliar post-emergent, scored after 14 days, read-out: % Visual Growth Reduction AMARE): 100%; pest or weed control at 35 g/ha [4, 10]: 90%; pest or weed control at 70 g/ha [4, 10]: 100%; pest or weed control at 280 g/ha ([4]; Viola tricolor, 336 h, 280 g ai/ha, foliar post-emergent, scored after 14 days, read-out: % Visual Growth Reduction VIOTR): 100%; GR80 Value VIOTR [4]: 29.2 g ai/ha; pest or weed control at 35 g/ha [5, 11]: 0%; pest or weed control at 70 g/ha [5, 11]: 0%; pest or weed control at 280 g/ha ([5]; Echinochloa crus-galli, 336 h, 280 g ai/ha, foliar post-emergent, scored after 14 days, read-out: % Visual Growth Reduction ECHCG): 80%; GR80 Value ECHCG [5]: 249 g ai/ha; pest or weed control at 35 g/ha [6, 12]: 90%; pest or weed control at 70 g/ha [6, 12]: 100%; pest or weed control at 280 g/ha ([6]; Chenopodium album, 336 h, 280 g ai/ha, foliar post-emergent, scored after 14 days, read-out: % Visual Growth Reduction CHEAL): 100%; GR80 Value CHEAL [6]: <17.5 g ai/ha
Nc1c(Cl)c(C(=O)O)nc(C(F)F)c1Cl [Compound F13, 4-Amino-3,5-dichloro-6-(difluoromethyl)picolinic acid]	0	0	5	0	0	0	60	75	85	85.8	100	100	100	21.7	90	90	27.6	0	10	90	pest or weed control at 35 g/ha [4, 10]: 0%; pest or weed control at 70 g/ha [4, 10]: 0%; GR80 Value VIOTR [4]: >140 g ai/ha; pest or weed control at 35 g/ha [5, 11]: 0%; pest or weed control at 70 g/ha [5, 11]: 0%; GR80 Value ECHCG [5]: >149 g ai/ha; pest or weed control at 35 g/ha [6, 12]: 90%; pest or weed control at 70 g/ha [6, 12]: 90%; GR80 Value CHEAL [6]: 25.1 g ai/ha

From US9603364B2 (Dow AgroSciences LLC, priority 2013, dated 2017)
